Data reported in patent publication US5948791A, “Quinoline derivatives for treating malaria” (Hoffmann-La Roche Inc., priority 1995, dated 1999).
Values after ≈ are worked out from the molar mass of the structure shown. Where two headings read alike, the source gives them in different places.

Columns and labels:
[1] = system: Plasmodium falciparum strain NF54; assay: Growth inhibition of Plasmodium falciparum NF54 (chloroquine-sensitive) in vitro, [G-3H]-hypoxanthin incorporation; format: cell-based; details: chloroquine-sensitive strain NF54, 72 h, read-out: IC50 for P. falciparum NF54
Outline: (§1)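 Asynchronous intraerythrocytic cultures in human A+ erythrocytes (0.7% parasitemia, 2.5% suspension) in RPMI 1640 with HEPES, NaHCO3 and human serum, exposed to compound titrated over 6-7 steps for 72 h at 37° C, 3% O2. Growth by [G-3H]-hypoxanthin incorporation against untreated controls; IC50 by logit regression.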

Plasmodium falciparum K1 = assay: Growth inhibition of Plasmodium falciparum K1 (chloroquine-resistant) in vitro, [G-3H]-hypoxanthin incorporation; format: cell-based, Plasmodium falciparum (strain K1); details: for IC50: Plasmodium falciparum, K1, 72 h, read-out: IC50 for P. falciparum K1; for Resistance index: ratio of the IC50 for K1 and the IC50 for NF54
Outline: as §1

Plasmodium berghei = assay: animal or person; format: in vivo, Plasmodium berghei (strain ANKA) in mice; details: Plasmodium berghei, mice, blood smears 48 h after treatment
Outline: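 Male albino mice (~25 g) infected i.v. on D0 with P. berghei ANKA (0.2 ml of 10^8 parasitized erythrocytes/ml); single s.c. and p.o. dose 24 h post-infection, 10 mg/kg screen then titration.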

[2] = po, single peroral dose of 10 mg/kg, read-out: Growth inhibition in % after po administration (GI%, percentage reduction of the parasitemia)
[3] = sc, single subcutaneous dose of 10 mg/kg, read-out: Growth inhibition in % after sc administration (GI%, percentage reduction of the parasitemia)

COc1cc(CN[C@H]2CC[C@H](Nc3ccnc4cc(Cl)ccc34)CC2)cc(OC)c1 [Example 106, trans-N1-(7-Chloro-quinolin-4-yl)-N4-(3,5-dimethoxy-benzyl)-cyclohexane-1,4-diamine]
IC50 [1]: 0.0015 µg/mL (≈ 0.00352 µM) | IC50 (Plasmodium falciparum K1): 0.0044 µg/mL (≈ 0.0103 µM) | Resistance index (Plasmodium falciparum K1): 2.9 | inhibition in vivo at 10 mg/kg (Plasmodium berghei; [2]): 98% | inhibition in vivo at 10 mg/kg (Plasmodium berghei; [3]): 99.5%

COc1ccc(CNC(C)(C)CNc2ccnc3cc(Cl)ccc23)c(O)c1.Cl.Cl [Example 29, N1-(7-Chloro-quinolin-4-yl)-N2-(2-hydroxy-4-methoxy-benzyl)-2-methyl-propane-1,2-diamine dihydrochloride]
IC50 [1]: 0.0077 µg/mL | IC50 (Plasmodium falciparum K1): 0.0162 µg/mL | Resistance index (Plasmodium falciparum K1): 2.1 | inhibition in vivo at 10 mg/kg (Plasmodium berghei; [2]): 74% | inhibition in vivo at 10 mg/kg (Plasmodium berghei; [3]): 99%

CC(C)(CNc1ccnc2cc(Cl)ccc12)NCc1cc(C(F)(F)F)cc(C(F)(F)F)c1 [Example 10, N1-(7-Chloro-quinolin-4-yl)-N2-(3,5-bis-trifluoromethyl-benzyl)-2-methyl-propane-1,2-diamine]
IC50 [1]: 0.0517 µg/mL (≈ 0.109 µM) | IC50 (Plasmodium falciparum K1): 0.0504 µg/mL (≈ 0.106 µM) | Resistance index (Plasmodium falciparum K1): 1.0 | inhibition in vivo at 10 mg/kg (Plasmodium berghei; [2]): 99.2% | inhibition in vivo at 10 mg/kg (Plasmodium berghei; [3]): 99.3%

COc1cccc(CCN[C@H]2CC[C@H](Nc3ccnc4cc(Cl)ccc34)CC2)c1OC.Cl.Cl [Example 105, trans-N1-(7-Chloro-quinolin-4-yl)-N4-[2-(2,3-dimethoxy-phenyl)-ethyl]-cyclohexane-1,4-diamine dihydrochloride]
IC50 [1]: 0.0034 µg/mL | IC50 (Plasmodium falciparum K1): 0.0153 µg/mL | Resistance index (Plasmodium falciparum K1): 4.5 | inhibition in vivo at 10 mg/kg (Plasmodium berghei; [2]): 55% | inhibition in vivo at 10 mg/kg (Plasmodium berghei; [3]): 99%

Cl.Cl.N#Cc1ccc(CN[C@H]2CCCC[C@@H]2Nc2ccnc3cc(Cl)ccc23)cc1 [Example 67, (1S,2S)-N1-(7-Chloro-quinolin-4-yl)-N2-(4-cyano-benzyl)-cyclohexane-1,2-diamine dihydrochloride]
IC50 [1]: 0.0091 µg/mL | IC50 (Plasmodium falciparum K1): 0.023 µg/mL | Resistance index (Plasmodium falciparum K1): 2.5 | inhibition in vivo at 10 mg/kg (Plasmodium berghei; [2]): 99% | inhibition in vivo at 10 mg/kg (Plasmodium berghei; [3]): 99%

COc1cc(OC)c(CN[C@H]2CC[C@@H](Nc3ccnc4cc(Cl)ccc34)CC2)c(OC)c1.Cl.Cl [Example 14, cis-N1-(7-Chloro-quinolin-4-yl)-N4-(2,4,6-trimethoxy-benzyl)-cyclohexane-1,4-diamine dihydrochloride]
IC50 [1]: 0.0048 µg/mL | IC50 (Plasmodium falciparum K1): 0.0284 µg/mL | Resistance index (Plasmodium falciparum K1): 5.9 | inhibition in vivo at 10 mg/kg (Plasmodium berghei; [2]): 100% | inhibition in vivo at 10 mg/kg (Plasmodium berghei; [3]): 100%

Cl.Cl.Clc1cccc(CN[C@H]2CC[C@H](Nc3ccnc4cc(Cl)ccc34)CC2)c1 [Example 107, trans-N1-(3-Chloro-benzyl)-N4-(7-chloro-quinolin-4-yl)-cyclohexane-1,4-diamine dihydrochloride]
IC50 [1]: 0.0014 µg/mL | IC50 (Plasmodium falciparum K1): 0.0034 µg/mL | Resistance index (Plasmodium falciparum K1): 2.4 | inhibition in vivo at 10 mg/kg (Plasmodium berghei; [2]): 84% | inhibition in vivo at 10 mg/kg (Plasmodium berghei; [3]): 95%

CC(C)(CNc1ccnc2cc(Cl)ccc12)NCc1cccc(C(F)(F)F)c1 [Example 8, N1-(7-Chloro-quinolin-4-yl)-N2-(3-trifluoromethyl-benzyl)-2-methyl-propane-1,2-diamine]
IC50 [1]: 0.0161 µg/mL (≈ 0.0395 µM) | IC50 (Plasmodium falciparum K1): 0.0189 µg/mL (≈ 0.0463 µM) | Resistance index (Plasmodium falciparum K1): 1.2 | inhibition in vivo at 10 mg/kg (Plasmodium berghei; [2]): 99% | inhibition in vivo at 10 mg/kg (Plasmodium berghei; [3]): 95%

CCN(CC)c1ccc(CNC(C)(C)CNc2ccnc3cc(Cl)ccc23)cc1.Cl.Cl.Cl [Example 46, N1-(7-Chloro-quinolin-4-yl)-N2-(4-diethylamino-benzyl)-2-methyl-propane-1,2-diamine trihydrochloride]
IC50 [1]: 0.0101 µg/mL | IC50 (Plasmodium falciparum K1): 0.0126 µg/mL | Resistance index (Plasmodium falciparum K1): 1.2 | inhibition in vivo at 10 mg/kg (Plasmodium berghei; [2]): 99.7% | inhibition in vivo at 10 mg/kg (Plasmodium berghei; [3]): 99%

COc1ccc(CN[C@H]2CC[C@H](Nc3ccnc4cc(Cl)ccc34)CC2)cc1OC.Cl.Cl [Example 110, trans-N1-(7-Chloro-quinolin-4-yl)-N4-(3,4-dimethoxy-benzyl)-cyclohexane-1,4-diamine dihydrochloride]
IC50 [1]: 0.0028 µg/mL | IC50 (Plasmodium falciparum K1): 0.0172 µg/mL | Resistance index (Plasmodium falciparum K1): 6.1 | inhibition in vivo at 10 mg/kg (Plasmodium berghei; [2]): 45% | inhibition in vivo at 10 mg/kg (Plasmodium berghei; [3]): 99.6%

CC(C)(CNc1ccnc2cc(Cl)ccc12)NCc1ccc(Cl)c(Cl)c1 [Example 3, N1-(7-Chloro-quinolin-4-yl)-N2-(3,4-dichloro-benzyl)-2-methyl-propane-1,2-diamine]
IC50 [1]: 0.0137 µg/mL (≈ 0.0335 µM) | IC50 (Plasmodium falciparum K1): 0.0183 µg/mL (≈ 0.0448 µM) | Resistance index (Plasmodium falciparum K1): 1.3 | inhibition in vivo at 10 mg/kg (Plasmodium berghei; [2]): 96% | inhibition in vivo at 10 mg/kg (Plasmodium berghei; [3]): 8%

COc1ccc(CCN[C@H]2CC[C@H](Nc3ccnc4cc(Cl)ccc34)CC2)cc1OC.Cl.Cl [Example 88, trans-N1-(7-Chloro-quinolin-4-yl)-N4-[2-(3,4-dimethoxy-phenyl)-ethyl]-cyclohexane-1,4-diamine dihydrochloride]
IC50 [1]: 0.0074 µg/mL | IC50 (Plasmodium falciparum K1): 0.0214 µg/mL | Resistance index (Plasmodium falciparum K1): 2.9 | inhibition in vivo at 10 mg/kg (Plasmodium berghei; [2]): 66% | inhibition in vivo at 10 mg/kg (Plasmodium berghei; [3]): 99.9%

Cl.Cl.O=[N+]([O-])c1ccc(CCN[C@H]2CC[C@H](Nc3ccnc4cc(Cl)ccc34)CC2)cc1 [Example 93, trans-N1-(7-Chloro-quinolin-4-yl)-N4-[2-(4-nitro-phenyl)-ethyl]-cyclohexane-1,4-diamine dihydrochloride]
IC50 [1]: 0.0034 µg/mL | IC50 (Plasmodium falciparum K1): 0.0083 µg/mL | Resistance index (Plasmodium falciparum K1): 2.4 | inhibition in vivo at 10 mg/kg (Plasmodium berghei; [2]): 98% | inhibition in vivo at 10 mg/kg (Plasmodium berghei; [3]): 99%

CC(C)(CNc1ccnc2cc(Cl)ccc12)NCc1ccc(C(F)(F)F)cc1 [Example 9, N1-(7-Chloro-quinolin-4-yl)-N2-(4-trifluoromethyl-benzyl)-2-methyl-propane-1,2-diamine]
IC50 [1]: 0.0132 µg/mL (≈ 0.0324 µM) | IC50 (Plasmodium falciparum K1): 0.0167 µg/mL (≈ 0.0409 µM) | Resistance index (Plasmodium falciparum K1): 1.3 | inhibition in vivo at 10 mg/kg (Plasmodium berghei; [2]): 66% | inhibition in vivo at 10 mg/kg (Plasmodium berghei; [3]): 74%

Cl.Cl.Clc1ccc(CN[C@H]2CC[C@H](Nc3ccnc4cc(Cl)ccc34)CC2)c(Cl)c1 [Example 109, trans-N1-(7-Chloro-quinolin-4-yl)-N4-(2,4-dichloro-benzyl)-cyclohexane-1,4-diamine dihydrochloride]
IC50 [1]: 0.0018 µg/mL | IC50 (Plasmodium falciparum K1): 0.0038 µg/mL | Resistance index (Plasmodium falciparum K1): 2.1 | inhibition in vivo at 10 mg/kg (Plasmodium berghei; [2]): 75% | inhibition in vivo at 10 mg/kg (Plasmodium berghei; [3]): 91%

CC(C)(CNc1ccnc2cc(Cl)ccc12)NCc1ccc(Oc2ccccc2)cc1.Cl.Cl [Example 43, N1-(7-Chloro-quinolin-4-yl)-N2-(4-phenoxy-benzyl)-2-methyl-propane-1,2-diamine dihydrochloride]
IC50 [1]: 0.016 µg/mL | IC50 (Plasmodium falciparum K1): 0.0181 µg/mL | Resistance index (Plasmodium falciparum K1): 1.1 | inhibition in vivo at 10 mg/kg (Plasmodium berghei; [2]): 30% | inhibition in vivo at 10 mg/kg (Plasmodium berghei; [3]): 98%

Cl.Cl.FC(F)(F)c1cc(CN[C@H]2CC[C@@H](Nc3ccnc4cc(Cl)ccc34)CC2)cc(C(F)(F)F)c1 [Example 77, cis-N1-(7-Chloro-quinolin-4-yl)-N4-(3,5-bis-trifluoromethyl-benzyl)-cyclohexane-1,4-diamine dihydrochloride]
IC50 [1]: 0.0966 µg/mL | IC50 (Plasmodium falciparum K1): 0.0632 µg/mL | Resistance index (Plasmodium falciparum K1): 0.7 | inhibition in vivo at 10 mg/kg (Plasmodium berghei; [2]): 99% | inhibition in vivo at 10 mg/kg (Plasmodium berghei; [3]): 98%

COc1ccc(CN[C@H]2CC[C@@H](Nc3ccnc4cc(Cl)ccc34)CC2)c(OC)c1.Cl.Cl [Example 81, cis-N1-(7-Chloro-quinolin-4-yl)-N4-(2,4-dimethoxy-benzyl)-cyclohexane-1,4-diamine dihydrochloride]
IC50 [1]: 0.0043 µg/mL | IC50 (Plasmodium falciparum K1): 0.0097 µg/mL | Resistance index (Plasmodium falciparum K1): 2.3 | inhibition in vivo at 10 mg/kg (Plasmodium berghei; [2]): 100% | inhibition in vivo at 10 mg/kg (Plasmodium berghei; [3]): 100%

Cl.Cl.Clc1ccc2c(N[C@H]3CC[C@H](NCCc4ccc5c(c4)OCO5)CC3)ccnc2c1 [Example 95, trans-N1-(2-Benzo[1,3]dioxol-5-yl-ethyl)-N4-(7-chloro-quinolin-4-yl)-cyclohexane-1,4-diamine dihydrochloride]
IC50 [1]: 0.0027 µg/mL | IC50 (Plasmodium falciparum K1): 0.0093 µg/mL | Resistance index (Plasmodium falciparum K1): 3.4 | inhibition in vivo at 10 mg/kg (Plasmodium berghei; [2]): 98% | inhibition in vivo at 10 mg/kg (Plasmodium berghei; [3]): 99.7%

COc1ccc(O)c(CN[C@H]2CC[C@@H](Nc3ccnc4cc(Cl)ccc34)CC2)c1.Cl.Cl [Example 80, cis-N1-(7-Chloro-quinolin-4-yl)-N4-(2-hydroxy-5-methoxy-benzyl)-cyclohexane-1,4-diamine dihydrochloride]
IC50 [1]: 0.0089 µg/mL | IC50 (Plasmodium falciparum K1): 0.0184 µg/mL | Resistance index (Plasmodium falciparum K1): 2.1 | inhibition in vivo at 10 mg/kg (Plasmodium berghei; [2]): 99.9% | inhibition in vivo at 10 mg/kg (Plasmodium berghei; [3]): 100%

Cl.Cl.Clc1ccc(CN[C@H]2CC[C@@H](Nc3ccnc4cc(Cl)ccc34)CC2)c(Cl)c1 [Example 73, cis-N1-(7-Chloro-quinolin-4-yl)-N4-(2,4-dichloro-benzyl)-cyclohexane-1,4-diamine dihydrochloride]
IC50 [1]: 0.015 µg/mL | IC50 (Plasmodium falciparum K1): 0.019 µg/mL | Resistance index (Plasmodium falciparum K1): 1.3 | inhibition in vivo at 10 mg/kg (Plasmodium berghei; [2]): 23% | inhibition in vivo at 10 mg/kg (Plasmodium berghei; [3]): 96%

CC(C)(CNc1ccnc2cc(Cl)ccc12)NCc1c(Cl)cccc1Cl [Example 12, N1-(7-Chloro-quinolin-4-yl)-N2-(2,6-dichloro-benzyl)-2-methyl-propane-1,2-diamine]
IC50 [1]: 0.0847 µg/mL (≈ 0.207 µM) | IC50 (Plasmodium falciparum K1): 0.197 µg/mL (≈ 0.482 µM) | Resistance index (Plasmodium falciparum K1): 2.3 | inhibition in vivo at 10 mg/kg (Plasmodium berghei; [2]): 98% | inhibition in vivo at 10 mg/kg (Plasmodium berghei; [3]): 4%

Cl.Cl.Clc1ccc2c(N[C@H]3CC[C@H](NCCc4ccccc4)CC3)ccnc2c1 [Example 89, trans-N1-(7-Chloro-quinolin-4-yl)-N4-phenethyl-cyclohexane-1,4-diamine dihydrochloride]
IC50 [1]: 0.0022 µg/mL | IC50 (Plasmodium falciparum K1): 0.0175 µg/mL | Resistance index (Plasmodium falciparum K1): 8.0 | inhibition in vivo at 10 mg/kg (Plasmodium berghei; [2]): 99.8% | inhibition in vivo at 10 mg/kg (Plasmodium berghei; [3]): 99.9%
